Data set [1] deals with HT-29. The data set can be described thus: Cytotoxicity against human HT-29 cells after 96 hrs using tetracolor one. The settings on record: HT-29, 96 h. The format is functional, cell-based.
Data set [2] deals with A549. Put plainly: Cytotoxicity against human A549 cells after 96 hrs using tetracolor one. The format is functional, cell-based. The settings on record: A549, 96 h.
The test system of data set [3] is HCT-116. Put plainly: Cytotoxicity against human HCT116 cells after 96 hrs using tetracolor one. The format is functional, cell-based. The settings on record: HCT-116, 96 h.
Data set [4] concerns HCT-116. The data set can be described thus: Antitumor activity against human HCT116 cells xenografted in BALB/c mouse assessed as tumor growth inhibition at […], ip administered on day 1 to day 5 and day 8 to day 12 measured on day 21 relative to control. Type of data set: functional. The settings on record: HCT-116, ip, dose 0.25 mg/kg, route intraperitoneal, read-out: TGI.

In data set [5] the test system is HCT-116. The data set can be described thus: Antitumor activity against human HCT116 cells xenografted in BALB/c mouse assessed as tumor growth inhibition at 1 mg/kg, ip administered on day 1 to day 5 and day 8 to day 12 measured on day 21 relative to control. The settings on record: HCT-116, ip, route intraperitoneal, read-out: TGI. Type of data set: functional.

For data set [6], the system named is Mus musculus. Put plainly: Toxicity in human HCT116 cells xenografted BALB/c mouse assessed as mortality at […], ip administered on day 1 to day 5 and day 8 to day 12 measured on day 21. Also on record: dose 0.25 mg/kg, route intraperitoneal. The settings on record: in vivo. Type of data set: organism-based, HCT-116. In general terms: In xenograft studies the graft and the host belong to different species.

Data set [7] concerns Mus musculus. The data set can be described thus: Toxicity in human HCT116 cells xenografted BALB/c mouse assessed as mortality at 1 mg/kg, ip administered on day 1 to day 5 and day 8 to day 12 measured on day 21. Type of data set: organism-based, HCT-116. Also noted: dose 1 mg/kg, route intraperitoneal. The settings on record: in vivo.
Data set [8] deals with HCT-116. The data set can be described thus: Antitumor activity against human HCT116 cells xenografted in BALB/c mouse assessed as tumor growth inhibition at 5 mg/kg, ip administered on day 1 to day 5 and day 8 to day 12 measured on day 21 relative to control. The format is functional. The settings on record: HCT-116, ip, route intraperitoneal, read-out: TGI.
Data set [9] relates to Mus musculus. Put plainly: Toxicity in human HCT116 cells xenografted BALB/c mouse assessed as mortality at 5 mg/kg, ip administered on day 1 to day 5 and day 8 to day 12 measured on day 21. The format is organism-based, HCT-116. Also noted: dose 5 mg/kg, route intraperitoneal. The settings on record: in vivo.
Data set [10] concerns HUVEC. Put plainly: Cytotoxicity against human HUVEC cells after 96 hrs using tetracolor one. Type of data set: ADME, cell-based.
Data set [11] concerns HUVEC. Put plainly: Selectivity ratio of IC50 for human HUVEC cells to IC50 for human HT-29 cells.
Data set [12] can be described thus: Prodrug conversion assessed as (S)-7-Amino-4-fluoro-1,2,3,10-tetramethoxy-6,7-dihydro-5H-benzo[a]heptalen-9-one release at 4 uM in presence of bovine spleen cathepsin-B by HPLC analysis. The settings on record: cattle. The format is physicochemical.
Data set [13] in a line: Chemical stability of the compound after 24 hrs by HPLC analysis. The format is physicochemical.
In data set [14] the test system is HCT-116. The data set can be described thus: Antitumor activity against human HCT116 cells xenografted in BALB/c mouse assessed as tumor growth inhibition at 1 mg/kg, ip administered on 1, 3 and 5th day measured on day 21 relative to control. Type of data set: functional. The settings on record: HCT-116, ip, 504 h, route intraperitoneal, read-out: TGI.
Data set [15] is described as follows: Prodrug conversion assessed as (S)-7-Amino-1,2,3,10-tetramethoxy-6,7-dihydro-5H-benzo[a]heptalen-9-one release at 4 uM in presence of bovine spleen cathepsin-B by HPLC analysis. The format is physicochemical. The settings on record: cattle.

As to `COc1c(F)c2c(c(OC)c1OC)-c1ccc(OC)c(=O)cc1[C@@H](NC(C)=O)CC2`, the IC50 in data set [1] came to 0.007 µM; in data set [2], 0.033 µM; in data set [3], 0.008 µM. Besides, in [4], the inhibition in vivo at […] came out at 25%. Also, the inhibition in vivo at 1 mg/kg in data set [5] came out at 55.6%. The Activity result in [6] and in [7] was “Non-toxic” in each case.

Turning to `COc1c(Cl)c2c(c(OC)c1OC)-c1ccc(OC)c(=O)cc1[C@@H](NC(C)=O)CC2`, the IC50 in data set [1] was 0.01 µM; in data set [2] it was 0.012 µM; in data set [3], 0.009 µM. Besides, the inhibition in vivo at 5 mg/kg in data set [8] stood at 68.4%. The Activity result in data set [9] is listed as “Non-toxic”.

Regarding `COc1c(I)c2c(c(OC)c1OC)-c1ccc(OC)c(=O)cc1[C@@H](NC(C)=O)CC2`, the IC50 in [1] stood at 0.006 µM; in data set [2], 0.032 µM; in data set [3] it was 0.007 µM.

Consider `COc1c(Br)c2c(c(OC)c1OC)-c1ccc(OC)c(=O)cc1[C@@H](NC(C)=O)CC2`, for which the IC50 in data set [1] amounted to 0.006 µM; in data set [2], 0.014 µM; in data set [3] it was 0.007 µM.

Turning to `COc1c(F)c2c(c(OC)c1OC)-c1ccc(OC)c(=O)cc1[C@@H](N)CC2`, the IC50 in data set [1] is 0.08 µM; in data set [2], 0.101 µM; in data set [10], 0.075 µM. In [11], the “Ratio IC50” value was determined as 0.9.

As for `COc1c(F)c2c(c(OC)c1OC)-c1ccc(OC)c(=O)cc1[C@@H](NC(=O)OCc1ccc(NC(=O)[C@H](CCCCN)NC(=O)[C@H](Cc3ccccc3)NC(=O)OCc3ccccc3)cc1)CC2`, the IC50 amounted to 0.091 µM in data set [1] and 0.151 µM in [10]. The Drug metabolism entry in data set [12] is reported as “Active”. The Stability result in [13] was “Stable”. In [11], the “Ratio IC50” value is listed as 1.7.

As for `COc1cc2c(c(OC)c1OC)-c1ccc(OC)c(=O)cc1[C@@H](NC(C)=O)CC2` [COLCHICINE], the IC50 in data set [1] was 0.008 µM; in data set [2] it was 0.054 µM; in data set [3], 0.011 µM. For the same molecule, the inhibition in vivo at 1 mg/kg in data set [14] came out at 32.8%.

With `COc1cc2c(c(OC)c1OC)-c1ccc(OC)c(=O)cc1[C@@H](NC(=O)OCc1ccc(NC(=O)[C@H](CCCCN)NC(=O)[C@H](Cc3ccccc3)NC(=O)OCc3ccccc3)cc1)CC2`, the IC50 was determined as 0.044 µM in data set [1] and 0.075 µM in data set [10]. Further, the Drug metabolism entry in [15] was “Active”. Besides, the Stability result in data set [13] was “Stable”. The “Ratio IC50” value in [11] came to 1.7.

As for `COc1c(Cl)c2c(c(OC)c1OC)-c1ccc(OC)c(=O)cc1[C@@H](N)CC2`, the concentration for half-maximal inhibition (IC50) in data set [1] worked out at 0.25 µM; in [2], 0.301 µM.

For `COc1c(N)c2c(c(OC)c1OC)-c1ccc(OC)c(=O)cc1[C@@H](NC(C)=O)CC2`, the concentration for half-maximal inhibition (IC50) in data set [1] worked out at 1.55 µM; in [2] it was 2.19 µM.

On to `COc1c(OC)c2c(c([N+](=O)[O-])c1OC)CC[C@H](NC(C)=O)c1cc(=O)c(OC)ccc1-2`, for which the IC50 in data set [1] amounted to 0.031 µM; in data set [2], 0.073 µM; in data set [3], 0.038 µM.

As for `COc1c(O)c2c(c(OC)c1OC)-c1ccc(OC)c(=O)cc1[C@@H](NC(C)=O)CC2`, the results for the IC50 in data set [1] and in data set [2] were 0.484 µM and 0.225 µM, respectively.

Consider `COc1c(C=O)c2c(c(OC)c1OC)-c1ccc(OC)c(=O)cc1[C@@H](NC(C)=O)CC2`, for which the IC50 stood at 0.128 µM in data set [1], 1.01 µM in data set [2] and 0.054 µM in data set [3].

The IC50 is the point on the concentration scale where inhibition reaches its midpoint. A high value points to lower potency.

(Values after ChEMBL document CHEMBL1949514, “Design, Synthesis, and Antitumor Activity of 4-Halocolchicines and Their Pro-drugs Activated by Cathepsin B” (ACS Med Chem Lett, 2011).)
